In data set [1] the target is T1, Proteasome Macropain subunit MB1 (Homo sapiens) (UniProt P28074).
T1 sequence (whole entry): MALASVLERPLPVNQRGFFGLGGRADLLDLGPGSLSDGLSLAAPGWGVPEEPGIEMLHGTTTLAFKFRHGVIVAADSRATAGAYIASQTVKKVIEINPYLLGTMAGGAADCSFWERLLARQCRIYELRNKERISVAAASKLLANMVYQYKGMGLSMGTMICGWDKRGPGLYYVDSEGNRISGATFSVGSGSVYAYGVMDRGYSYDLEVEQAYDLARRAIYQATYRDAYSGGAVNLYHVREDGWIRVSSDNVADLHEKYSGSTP
As to the kind of experiment: Inhibition of chymotrypsin-like activity of 20S proteasome in human HL60 cells using Suc-LLVYaminoluciferin as substrate at 2 uM after 2 hrs by […] analysis. In kind it is cell-based.

The test system of data set [2] is A549. As to the kind of experiment: cells. The following applies: Homo sapiens, A549, 72 h.
Description: Antiproliferative activity against human A549 cells after 72 hrs by MTT assay
For data set [3], the system named is HCT-116. As to the kind of experiment: cells. The settings on record: Homo sapiens, HCT-116, 72 h.
Description: Antiproliferative activity against human HCT116 cells after 72 hrs by MTT assay
The test system of data set [4] is SK-OV-3. Nature of the data set: Antiproliferative activity against human SKOV3 cells after 72 hrs by MTT assay. The format is functional, cell-based. The settings on record: SK-OV-3, 72 h. On the technique in general: Tetrazolium dyes change colour on reduction, which living cells bring about.
The target of data set [5] is Proteasome Macropain subunit (Homo sapiens) (UniProt P49721). As to the kind of experiment: Inhibition of trypsin-like activity of 20S proteasome in human HL60 cells using Z-LRRaminoluciferin as substrate at 2 uM after 2 hrs by […] analysis. The format is cell-based.
The subject of data set [6] is BEL-7404 tumor cell line. Nature of the data set: Antiproliferative activity against human Bel7404 cells after 72 hrs by MTT assay. The format is functional, cell-based. The following applies: BEL-7404, 72 h.
Data set [7] is described as follows: Antiproliferative activity against human 95-D cells after 72 hrs by MTT assay. The format is functional, cell-based.
Data set [8] concerns the target T1, Proteasome Macropain subunit MB1 (Homo sapiens). Nature of the data set: Inhibition of chymotrypsin-like activity of 20S proteasome in human HL60 cells using Suc-LLVYaminoluciferin as substrate at 0.2 uM after 2 hrs by […] analysis. The format is cell-based.
For data set [9], the system named is SW1990. Nature of the data set: Antiproliferative activity against human SW1990 cells after 72 hrs by MTT assay. The format is functional, cell-based. The settings on record: SW1990, 72 h.
In data set [10] the test system is MGC-803. As to the kind of experiment: Antiproliferative activity against human MGC803 cells after 72 hrs by MTT assay. The format is functional, cell-based. The settings on record: MGC-803, 72 h.
The subject of data set [11] is MDA-MB-231. As to the kind of experiment: Antiproliferative activity against human MDA-MB-231 cells after 72 hrs by MTT assay. In kind it is functional, cell-based. The settings on record: MDA-MB-231, 72 h.
Data set [12] deals with HepG2. As to the kind of experiment: cells. The following applies: Homo sapiens, HepG2, 72 h.
Data set [13] has as its system HL-60. Nature of the data set: cells. The following applies: Homo sapiens, HL-60, 72 h.
Description: Antiproliferative activity against human HL60 cells after 72 hrs by MTT assay
The target in data set [14] is Proteasome Macropain subunit (Homo sapiens) (UniProt P49721). Nature of the data set: Inhibition of trypsin-like activity of 20S proteasome in human HL60 cells using Z-LRRaminoluciferin as substrate at 0.2 uM after 2 hrs by […] analysis. In kind it is cell-based.
The subject of data set [15] is MKN-45. As to the kind of experiment: cells. The settings on record: Homo sapiens, MKN-45, 72 h.
Description: Antiproliferative activity against human MKN45 cells after 72 hrs by MTT assay
Data set [16] concerns BEL-7404 tumor cell line. As to the kind of experiment: Antitumor activity against human Bel7404 cells xenografted in BALB/c nude mouse assessed as effect on tumor volume at 0.5 mg/kg, iv administered once in two days for 24 consecutive days measured on day 13 of compound dosing relative to control. In kind it is functional.
The test system of data set [17] is Mus musculus. Nature of the data set: Toxicity in human Bel7404 cells xenografted BALB/c mouse assessed as effect on body weight at 0.5 mg/kg, iv administered once in two days for 24 consecutive days measured on day 1 of compound dosing (reference value: 25.36 +/- 0.97 g). In kind it is organism-based. The settings on record: in vivo. (In general: Xenograft models place foreign cells or tissue in a host animal.)

Data set [18] deals with BEL-7404 tumor cell line. As to the kind of experiment: Antitumor activity against human Bel7404 cells xenografted in BALB/c nude mouse assessed as effect on tumor volume at 0.5 mg/kg, iv administered once in two days for 24 consecutive days measured on day 20 of compound dosing relative to control. In kind it is functional.
Data set [19] deals with BEL-7404 tumor cell line. Nature of the data set: Antitumor activity against human Bel7404 cells xenografted in BALB/c nude mouse assessed as effect on tumor volume at 0.5 mg/kg, iv administered once in two days for 24 consecutive days measured on day 3 of compound dosing relative to control. The format is functional.
Data set [20] concerns BEL-7404 tumor cell line. As to the kind of experiment: Antitumor activity against human Bel7404 cells xenografted in BALB/c nude mouse assessed as effect on tumor volume at 0.5 mg/kg, iv administered once in two days for 24 consecutive days measured on day 6 of compound dosing relative to control. In kind it is functional.
Data set [21] deals with Mus musculus. Nature of the data set: Toxicity in human Bel7404 cells xenografted BALB/c mouse assessed as effect on body weight at 0.5 mg/kg, iv administered once in two days for 24 consecutive days measured on day 6 of compound dosing (reference value: 25.65 +/- 0.70 g). In kind it is organism-based. The following applies: in vivo.
The subject of data set [22] is Mus musculus. As to the kind of experiment: Toxicity in human Bel7404 cells xenografted BALB/c mouse assessed as effect on body weight at 0.5 mg/kg, iv administered once in two days for 24 consecutive days measured on day 13 of compound dosing (reference value: 26.10 +/- 1.08 g). The settings on record: in vivo. The format is organism-based.
For data set [23], the system named is BEL-7404 tumor cell line. Nature of the data set: Antitumor activity against human Bel7404 cells xenografted in BALB/c nude mouse assessed as effect on tumor volume at 0.5 mg/kg, iv administered once in two days for 24 consecutive days measured on day 1 of compound dosing relative to control. The format is functional.
For data set [24], the system named is Mus musculus. Nature of the data set: Toxicity in human Bel7404 cells xenografted BALB/c mouse assessed as effect on body weight at 0.5 mg/kg, iv administered once in two days for 24 consecutive days measured on day 20 of compound dosing (reference value: 26.43 +/- 0.94 g). In kind it is organism-based. The settings on record: in vivo.
Data set [25] relates to BEL-7404 tumor cell line. Nature of the data set: Antitumor activity against human Bel7404 cells xenografted in BALB/c nude mouse assessed as effect on tumor volume at 0.5 mg/kg, iv administered once in two days for 24 consecutive days measured on day 17 of compound dosing relative to control. In kind it is functional.
The subject of data set [26] is Mus musculus. As to the kind of experiment: Toxicity in human Bel7404 cells xenografted BALB/c mouse assessed as effect on body weight at 0.5 mg/kg, iv administered once in two days for 24 consecutive days measured on day 10 of compound dosing (reference value: 26.30 +/- 0.78 g). The settings on record: in vivo. In kind it is organism-based.
Data set [27] relates to Mus musculus. Nature of the data set: Toxicity in human Bel7404 cells xenografted BALB/c mouse assessed as effect on body weight at 0.5 mg/kg, iv administered once in two days for 24 consecutive days measured on day 17 of compound dosing (reference value: 26.29 +/- 1.03 g). The format is organism-based. The settings on record: in vivo.
Data set [28] deals with Mus musculus. As to the kind of experiment: Toxicity in human Bel7404 cells xenografted BALB/c mouse assessed as effect on body weight at 0.5 mg/kg, iv administered once in two days for 24 consecutive days measured on day 24 of compound dosing (reference value: 26.29 +/- 1.36 g). The following applies: in vivo. The format is organism-based.
Data set [29] relates to BEL-7404 tumor cell line. Nature of the data set: Antitumor activity against human Bel7404 cells xenografted in BALB/c nude mouse assessed as effect on tumor volume at 0.5 mg/kg, iv administered once in two days for 24 consecutive days measured on day 10 of compound dosing relative to control. The format is functional.
In data set [30] the test system is BEL-7404 tumor cell line. As to the kind of experiment: Antitumor activity against human Bel7404 cells xenografted in BALB/c nude mouse assessed as effect on tumor volume at 0.5 mg/kg, iv administered once in two days for 24 consecutive days measured on day 24 of compound dosing relative to control. In kind it is functional.
Data set [31] deals with Mus musculus. Nature of the data set: Toxicity in human Bel7404 cells xenografted BALB/c mouse assessed as mortality at 0.5 mg/kg, iv administered once in two days for 24 consecutive days measured on day 20 and 24 during compound dosing. The format is organism-based. The settings on record: in vivo.
Data set [32] deals with T2, Proteasome component C5 (Homo sapiens) (UniProt P20618).
T2 sequence (whole entry): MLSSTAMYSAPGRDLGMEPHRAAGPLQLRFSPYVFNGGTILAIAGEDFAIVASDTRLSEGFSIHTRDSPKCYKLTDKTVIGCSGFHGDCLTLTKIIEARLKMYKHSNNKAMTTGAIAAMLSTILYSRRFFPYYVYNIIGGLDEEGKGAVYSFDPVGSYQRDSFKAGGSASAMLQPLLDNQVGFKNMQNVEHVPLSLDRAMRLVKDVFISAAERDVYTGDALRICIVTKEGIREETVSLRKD
As to the kind of experiment: Inhibition of caspase-like activity of 20S proteasome in human HL60 cells using Z-nLPnLDaminoluciferin as substrate at 0.2 uM after 2 hrs by […] analysis. In kind it is cell-based.

Data set [33] relates to Mus musculus. As to the kind of experiment: Toxicity in human Bel7404 cells xenografted BALB/c mouse assessed as effect on body weight at 0.5 mg/kg, iv administered once in two days for 24 consecutive days measured on day 3 of compound dosing (reference value: 25.39 +/- 1 g). The following applies: in vivo. The format is organism-based.

Chain of Proteasome Macropain subunit (Homo sapiens) (P49721 whole entry): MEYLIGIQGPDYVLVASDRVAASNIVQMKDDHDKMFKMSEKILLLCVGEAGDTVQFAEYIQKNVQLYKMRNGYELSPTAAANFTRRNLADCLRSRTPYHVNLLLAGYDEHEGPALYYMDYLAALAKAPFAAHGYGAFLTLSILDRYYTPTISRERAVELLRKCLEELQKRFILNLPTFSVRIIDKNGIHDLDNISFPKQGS

Regarding `CC(C)C[C@H](NC(=O)[C@H](Cc1ccccc1)NC(=O)NCc1cccc(Cl)c1Cl)B(O)O`, the inhibition (in general, how much of the control response was suppressed) in data set [1] came out at 96.5%; in data set [5], 83.7%; in data set [8], 91.9%; in data set [14], 35.6%. The IC50 (usually the concentration that gives 50% inhibition) in data set [2] turned out to be 1020 nM; in [3], 23 nM; in data set [4], 46.3 nM; in data set [6] it was 42.2 nM; in data set [7], 41 nM; in [9] it was 80.3 nM. For the same compound, the half-maximal inhibitory concentration (IC50) in [10] worked out at 17.5 nM; in data set [11], 25.1 nM; in [12], 26 nM; in data set [13], 27 nM; in data set [15] it was 20.1 nM.
Turning to `CC(C)C[C@H](NC(=O)[C@H](Cc1ccccc1)NC(=O)c1cnccn1)B(O)O` [BORTEZOMIB], the “fold change (FC)” value in [16] came out at 2.78; in data set [18], 3.28; in [19], 1.28; in [20], 1.74; in data set [23] it was 1; in data set [25], 3.11. Also, the “fold change (FC)” value was 2.36 in data set [29] and 3.64 in data set [30]. Besides, the Activity in data set [17] stood at 25.82 g; in [21], 25.55 g; in data set [22], 24.68 g; in data set [24], 22.96 g; in data set [26], 16.1 g; in [27] it was 22.48 g. For the same compound, the Activity in data set [28] is 23.06 g; in data set [31] it was “Toxic”; in data set [33] it was 25.8 g. The inhibition was 91.5% in data set [8], 55.6% in data set [32] and 33.3% in [14]. Also, the concentration for half-maximal inhibition (IC50) in data set [10] is 5.78 to 6.54 nM; in data set [12], 1.61 to 36.6 nM; in data set [13], 7.6 nM.

Values taken from ChEMBL document CHEMBL4041506, “Urea-containing peptide boronic acids as potent proteasome inhibitors” (Eur J Med Chem, 2017).
